Source: patent US20240041922A1, “METHODS AND COMPOSITIONS” (Monash University, priority 2020, published 2024)
“Also recorded” adds a separate entry of the source.

Columns and labels:
C2C12 myoblasts = assay: C2C12 myoblast proliferation (EdU incorporation); type: cell-based, mouse; details: for effect on NAMPT-induced myoblast proliferation: co-administration with NAMPT, 6 h
Method: Larvae: Labelling and detection was carried out as previously described (Nguyen, P. D. et al. Muscle stem cells undergo extensive clonal drift during tissue growth via Meox1-mediated induction of G2 cell-cycle arrest. […] Cell culture: Cells were incubated for 1 h in media supplemented with 10 μM EdU. […] Cells were processed using the Click-iTTM EdU Alexa FluroTM 647 imaging Kit (Thermo Fisher) following the manufacturer's protocol. The mouse muscle cell line […]. Serial passaging and differentiation of myogenic cells isolated from dystrophic mouse muscle. Nature 270, 725 (1977) were cultured in growth media (Dulbecco's Modified Eagle Medium (4.5 g/l D-Glucose, No L Glutamine, No Sodium Pyruvate (Gibco))+20% Fetal Bovine Solution-One Shot (Gibco)+1% Glut Max 100x (Gibco)). Cells were maintained at 37° C., 5% CO2. Cells at 70% confluence, passage 8 were extracted from T75 flasks with 0.025% Tryspin EDTA (Gibco), neutralised in growth media, spun at 180×g for 5 min to pellet cells. The cells were then resuspended in 10 ml of fresh growth media. 500 μl of cells were plated on a 8-well on cover glass II (Sarstedt) chamber slide at a density of 1×10^3 cells/ml. Cells were left 4 h at 37° C. to re-attach. For drug treatments, the media were supplemented with appropriate doses and cultured for 6 h.

PAX7+ satellite cells = assay: Primary mouse myoblast mono- and co-cultures, PAX7+ satellite cell proliferation (EdU); type: cell-based; details: 100 nM inhibitor; for effect on macrophage-stimulated satellite cell proliferation: MB+macrophage co-culture; for effect on NAMPT-stimulated satellite cell proliferation: with hrNAMPT
Method: Larvae: Labelling and detection was carried out as previously described (Nguyen, P. D. et al. Muscle stem cells undergo extensive clonal drift during tissue growth via Meox1-mediated induction of G2 cell-cycle arrest. […] Cell culture: Cells were incubated for 1 h in media supplemented with 10 μM EdU. […] Cells were processed using the Click-iTTM EdU Alexa FluroTM 647 imaging Kit (Thermo Fisher) following the manufacturer's protocol. For isolation of primary mouse myoblasts, limb skeletal muscle from E17.5 C57/BL6J mice were minced and digested in 0.125% Trypsin at 37° C. for 20 min. […] Myoblasts were again depleted for fibroblasts prior to co-culturing on gelatin-coated 48 well plates in DMEM+20% FBS+10% L929-conditioned medium. 100,000 myoblasts were plated with either 7,500 MafB/c-Maf deficient (Maf-DKO) macrophages (Aziz, A., Soucie, E., Sarrazin, […]. MafB/c-Maf deficiency enables self-renewal of differentiated functional macrophages. […] For drug treatments, the media were supplemented with appropriate doses and cultured for 24 h.

[1] = system: larval zebrafish skeletal muscle; assay: Larval zebrafish muscle regeneration by birefringence imaging; type: in vivo; details: larvae soaked in drug after needle stab injury
Method: 4dpf larvae were anaesthetized in 0.01% tricaine (MS-222) (Sigma-Aldrich) in Ringer's solution. Mechanical injures were targeted either to the dorsal or ventral myotome above the cloaca when the larvae is oriented dorsal to the top, anterior to the left. Needle-stick injury was carried out as previously described (Gurevich, D. B. el al. Asymmetric division of clonal muscle stem cells co-ordinate muscle regeneration in vivo. Science 353 6295 aad9969 (2016)). Briefly, the myotome was subjected to a single 30-gauge needle puncture that generates an extensive injury with many damaged muscle fibres. […]
Fixed and Immunostained cell culture samples were imaged on a Leica DMi8 inverted widefield microscope with a 10× objective. Birefringence imaging was carried out as previously described (Berger, J., Sztal, T. & Currie, P. D. Quantification of birefringence readily measures the level of muscle damage in zebrafish. Biochemical and biophysical research communications 423, 785-788 (2012)), using a Leica DM IRB upright microscope integrated with the Abrio software (CRI Hinds instruments) using a 5× objective. Images were analysed using the software Fiji^52, whereby the mean grey value of the injury site birefringence is normalised to the region before and after it to calculate relative birefringence of the wound site. […]

[2] = system: wound-resident muscle stem cells; assay: Larval zebrafish needle stab muscle injury, wound site proliferation (EdU); type: in vivo; details: needle stab injury, agent alone
Method: 4dpf larvae were anaesthetized in 0.01% tricaine (MS-222) (Sigma-Aldrich) in Ringer's solution. Mechanical injures were targeted either to the dorsal or ventral myotome above the cloaca when the larvae is oriented dorsal to the top, anterior to the left. Needle-stick injury was carried out as previously described (Gurevich, D. B. el al. Asymmetric division of clonal muscle stem cells co-ordinate muscle regeneration in vivo. Science 353 6295 aad9969 (2016)). Briefly, the myotome was subjected to a single 30-gauge needle puncture that generates an extensive injury with many damaged muscle fibres. For laser-induced injury, anaesthetised larvae were mounted in a thin layer of 1% low-melt agarose in Ringer's solution. Injuries were carried out using a UV-nitrogen laser pulsed through a coumarin 440 nm dye cell coupled to a Zeiss Axioplan microscope (MicroPoint Laser System, Andor Technology). On average a laser injury required pulses for 5-10 sec from laser beams focused through a 40× water immersion objective. For time-lapse analysis of the immediate response to injury, muscle fibre ablations were achieved using a SIM scanner (Olympus) at 790 nm and 200 msec dwell time at 100% laser power on an Olympus FVMPE-RS upright multi-photon microscope equipped with a 25×/1.05 water immersion objective. Injury-responding macrophages were tracked using the manual tracking plugin in Fiji.
(§1) Cell ablation was carried out as previously described (Pisharath, H. & Parsons, M. J. in Zebrafish 133-143 (Springer, 2009)) with minor modifications. Larvae at the appropriate stage were incubated in 5-10 mM metronidazole (Mtz) (Sigma-Aldrich) in Ringer's solution and daily refreshed until experimental end point. Drug treatments were carried out by incubating 4 dpf needle stick injured larvae in 5 and 10 μM cenicriviroc (CVC) (Med Chem Express) and 5 and 10 μM maraviroc (MVC) (Med Chem Express) in Ringer's solution immediately post injury and refreshed daily.
The effect of drug treatment on laser ablation muscle injury was assayed by treating larvae with 5 μM CVC for 2 h prior to injury and with larvae being maintained in the drug until experimental end point. […] Chemokine supplementation experiments were carried out in plasticware coated with 0.1% bovine serum albumin (BSA) overnight (rinsed in Ringer's solution prior to use) to minimise protein adsorption. Larvae were treated with 57 nM recombinant human visfatin (hrNAMPT(1)) (PeproTech), 57 nM recombinant murine CCL8/MCP-2 (mrCCL8) (PeproTech) and combinations with Mtz and CVC.
Larvae: Labelling and detection was carried out as previously described (Nguyen, P. D. et al. Muscle stem cells undergo extensive clonal drift during tissue growth via Meox1-mediated induction of G2 cell-cycle arrest. Cell Stem Cell 21, 107-119. e106 (2017))^55 with minor alteration. 6 dpf/2 dpi larvae were pulsed with 2.5 nM EdU (Thermo Fisher) for 1h and chased for a further 1.5 h prior to fixation. Cell culture: Cells were incubated for 1 h in media supplemented with 10 μM EdU. Following Edu pulse, C2C12 cells were fixed immediately, while primary mouse myoblast co-cultures were rinsed in PBS, replaced with media and incubated for a further 2 h following which the cells were fixed. Cells were processed using the Click-iT™ EdU Alexa Fluro™ 647 imaging Kit (Thermo Fisher) following the manufacturer's protocol.

Nampt = assay: NAD+/NADH levels after Nampt enzymatic inhibition; type: in vivo, zebrafish; details: 10 μM
macrophages = assay: Nitroreductase-mediated macrophage ablation by metronidazole, Tg(mpeg1:GAL4FF/UAS:NfsB-mCherry); type: in vivo, zebrafish
Method: as §1

mmp9+/mpeg+ macrophages = assay: Metronidazole ablation of mmp9-expressing macrophages, TgBAC(mmp9:EGFP-NTR); type: in vivo, zebrafish
Method: as §1
In order to more directly implicate Cluster 2 macrophages in the regulation of regenerative muscle stem cell proliferation, we specifically ablated these cells during the repair process, using an alternative mmp9 promoter-driven transgenic line that expressed the nitroreductase enzyme fused to EGFP (TgBAC(mmp9:EGFP-NTR)^24). These larvae were subjected to a needle stab muscle injury at 4 dpf (0 dpi). At 1.75 dpi larvae were treated with 5 mM Mtz, a dosing that specifically ablated 77.94% of mmp9^+/mpeg^+-macrophages present in the injury zone (FIG. 10b-d). Specific ablation of these cells led to a significant skeletal muscle repair deficit (FIG. 3p-q) and a severe reduction in muscle stem cell proliferation to levels similar to those evident upon mpeg^+-dwelling macrophage ablation, documented above (FIG. 2f-h, FIG. 3r, FIG. 10e-g). Collectively, these analyses indicate that Cluster 2 contains a specific mmp9^+ muscle stem cell-associated, dwelling macrophage subset required for muscle stem cell proliferation during muscle regeneration

larval zebrafish = assay: Tolerability of metronidazole in larval zebrafish; type: in vivo; details: 10 mM Mtz
Method: as §1

| Compound | effect on NAMPT-induced myoblast proliferation (C2C12 myoblasts) | effect on macrophage-stimulated satellite cell proliferation (PAX7+ satellite cells) | effect on NAMPT-stimulated satellite cell proliferation (PAX7+ satellite cells) | muscle regeneration (birefringence) [1] | wound site muscle stem cell proliferation [2] | myoblast proliferation, factor added alone (C2C12 myoblasts; 6 h in growth media) | larval NAD+/NADH levels (Nampt) | time to start of macrophage ablation after Mtz addition (macrophages; 5 mM Mtz) [h] | macrophage ablation (macrophages; 5 mM Mtz for 24 h from 4 dpf, trunk macrophages at 5 dpf) [%] | time until majority of trunk macrophages ablated (macrophages; Mtz) [h] | ablation of mmp9+/mpeg+ macrophages (mmp9+/mpeg+ macrophages; 5 mM Mtz at 1.75 dpi) [%] | number of mmp9+/mpeg+ macrophages in injury zone (mmp9+/mpeg+ macrophages; Mtz treated) | number of mmp9-/mpeg+ macrophages in injury zone (mmp9+/mpeg+ macrophages; Mtz treated) | lethality, needle stab injured larvae (larval zebrafish) | tolerability, uninjured larvae (larval zebrafish) |
| --- | --- | --- | --- | --- | --- | --- | --- | --- | --- | --- | --- | --- | --- | --- | --- |
| CCCCOCCOc1ccc(-c2ccc3c(c2)/C=C(/C(=O)Nc2ccc([S@@+]([O-])Cc4cncn4CCC)cc2)CCCN3CC(C)C)cc1 [CVC, cenicriviroc, reference compound] | abolishes NAMPT's pro-proliferative response; also recorded: proliferative response was blocked | a response that is inhibited; also recorded: reduced satellite cell proliferation in MB+MΦ culture conditions to levels evident in MB alone or MB+3T3 cultures | pro-proliferative response is abolished; also recorded: an effect that was abolished | marked regeneration deficit; also recorded: highly significant regeneration deficit | proliferation is inhibited by CVC addition; also recorded: resulted in a proliferation deficit; also recorded: reduction in the proliferation of pax3a^+ myogenic stem cells; also recorded: reduction in the proliferation of par3a^+ myogenic stem cells | – | – | – | – | – | – | – | – | – | – |
| N#CN=C(NCCCCCCOc1ccc(Cl)cc1)Nc1ccncc1 [GMX1778, reference compound] | does not impact its effect on myoblast proliferation; also recorded: did not affect the increased myoblast proliferation | – | – | – | had no effect on muscle stem cell proliferation in the injury zone; also recorded: did not alter muscle stem cell proliferation | no negative effect on the basal level of C2C12 proliferation | severe reduction in larval NAD^+/NADH levels | – | – | – | – | – | – | – | – |
| Cc1ncc([N+](=O)[O-])n1CCO [Mtz, metronidazole] | – | – | – | – | – | – | – | 3 | 77 | 10 to 13 | 77.94 | 2.18±1.19 | 6.65±1.50 | significant lethality | able to tolerate |
| maraviroc [MVC, reference compound] | abolishes NAMPT's pro-proliferative response; also recorded: proliferative response was blocked | pro-proliferative response is abolished | an effect that was abolished | marked regeneration deficit; also recorded: highly significant regeneration deficit | reduction in the proliferation of pax3a^+ myogenic stem cells; also recorded: reduction in the proliferation of par3a^+ myogenic stem cells | – | – | – | – | – | – | – | – | – | – |
